Measured values as given in patent publication US9440978B2, “Imidazolo-, oxazolo-, and thiazolopyrimidine modulators of TRPV1” (Janssen Pharmaceutica NV, priority 2007, dated 2016).
Counter-ions that a name gives are not always drawn.

Tests used:
rat TRPV1 = target: T1, rat TRPV1 (Rattus norvegicus, UniProt O35433); test: Block of capsaicin-induced Ca2+ influx, rat assay (rTRPV1/HEK293, FLIPR); type: cell-based; conditions: HEK293 cells transfected with rat TRPV1; capsaicin challenge; mean; > value = solubility limit in assay medium; read-out: Rat IC50
T1 construct: expressed in transfected cells; host or cells: HEK293
T1 sequence (O35433 whole entry): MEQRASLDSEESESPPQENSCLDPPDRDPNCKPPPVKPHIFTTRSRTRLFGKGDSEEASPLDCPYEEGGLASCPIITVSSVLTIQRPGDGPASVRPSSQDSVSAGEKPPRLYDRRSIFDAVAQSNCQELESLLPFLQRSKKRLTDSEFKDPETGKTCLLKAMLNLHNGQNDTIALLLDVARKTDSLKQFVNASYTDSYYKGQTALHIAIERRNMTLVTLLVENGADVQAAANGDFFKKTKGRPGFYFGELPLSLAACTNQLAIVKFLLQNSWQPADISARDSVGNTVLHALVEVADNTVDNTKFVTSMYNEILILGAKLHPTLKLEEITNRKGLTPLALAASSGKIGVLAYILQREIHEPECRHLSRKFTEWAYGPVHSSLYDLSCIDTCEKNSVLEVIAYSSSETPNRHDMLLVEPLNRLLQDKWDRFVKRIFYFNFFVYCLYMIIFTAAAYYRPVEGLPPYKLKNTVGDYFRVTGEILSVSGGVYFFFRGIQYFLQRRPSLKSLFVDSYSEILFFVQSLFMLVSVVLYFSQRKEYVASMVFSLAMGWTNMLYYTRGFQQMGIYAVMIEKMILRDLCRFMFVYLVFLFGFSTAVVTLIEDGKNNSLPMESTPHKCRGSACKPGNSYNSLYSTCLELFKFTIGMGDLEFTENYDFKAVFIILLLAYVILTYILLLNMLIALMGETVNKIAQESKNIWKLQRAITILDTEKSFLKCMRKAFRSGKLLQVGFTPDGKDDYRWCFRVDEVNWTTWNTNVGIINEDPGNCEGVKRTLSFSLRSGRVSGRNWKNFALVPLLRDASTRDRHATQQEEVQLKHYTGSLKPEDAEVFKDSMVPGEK
Experimental: (§1) HEK293 cells were transfected with human TRPV1 cloned in pcDNA3.1zeo(+) using the Effectene non-liposomal lipid based transfection kit (Qiagen) (hTRPV1/HEK293). hTRPV1/HEK293 cells were routinely grown as monolayers under selection in zeocin (200 μg/mL; Invitrogen) in Dulbecco's Modified Eagle Medium (DMEM, Gibco BRL) supplemented with 10% fetal bovine serum, and penicillin/streptomycin (50 units/mL) in 5% CO2 at 37° C. Cells were passaged frequently, every 3-5 days, to avoid overgrowth, depletion of essential medium components, or acidic medium exposure. Cells were passaged using a brief wash in 0.05% trypsin with 1 mM EDTA, followed by dissociation in divalent-free phosphate-buffered saline (Hyclone #SH30028.02). […] The assay buffer was composed of 130 mM NaCl, 2 mM KCl, 2 mM MgCl2, 10 mM HEPES, 5 mM glucose, and either 2 mM or 20 μM CaCl2. On the day of the experiment, the culture medium was replaced with 2 mM calcium assay buffer using an automated plate washer (ELx405; Biotek, VT). […] After loading the cells, the dye solution was replaced with 50 μL/well of 20 μM calcium assay buffer using the ELx405 plate washer. Test compounds (50 μL/well) were added to the plate and incubated for 30 min. Intracellular Ca^2+ levels were subsequently assayed using a Fluorometric Imaging Plate Reader (FLIPR™ instrument, Molecular Devices, CA) to simultaneously monitor Fluo-3 fluorescence in all wells (λexcitation=488 nm, λemission=540 nm) during challenge with agonist (capsaicin). The IC50 values were determined. […] The contents of the wells were mixed 3 times (40 μL mix volume) immediately after the additions were made. Concentration-dependence of block was determined by exposing each well of cells in duplicate rows of a 96-well plate to a serial dilution of test compound. The concentration series usually started at 10 μM with a three-fold serial decrement in concentration. The magnitude of the capsaicin response was determined by measuring the change in fluo3 fluorescence before and 100 seconds after the addition of the agonist. Data were analyzed using a non-linear regression program (Origin; OriginLab, MA).
This assay was performed similarly to the human assay described above, but using HEK293 cells transfected with rat TRPV1 (rTRPV1/HEK293).
(§2) IC50 values shown are the average (mean) of the results obtained. […] Compounds were tested as in the free base, trifluoroacetic acid salt, or hydrochloride salt form.

human TRPV1 = target: T2, human TRPV1 (Homo sapiens, UniProt Q8NER1); test: Block of capsaicin-induced Ca2+ influx, human assay (hTRPV1/HEK293, FLIPR); type: cell-based; conditions: HEK293 cells transfected with human TRPV1; 150 nM capsaicin challenge; mean; > value = solubility limit in assay medium
T2 construct: expressed in transfected cells; host or cells: HEK293
T2 sequence (Q8NER1 whole entry): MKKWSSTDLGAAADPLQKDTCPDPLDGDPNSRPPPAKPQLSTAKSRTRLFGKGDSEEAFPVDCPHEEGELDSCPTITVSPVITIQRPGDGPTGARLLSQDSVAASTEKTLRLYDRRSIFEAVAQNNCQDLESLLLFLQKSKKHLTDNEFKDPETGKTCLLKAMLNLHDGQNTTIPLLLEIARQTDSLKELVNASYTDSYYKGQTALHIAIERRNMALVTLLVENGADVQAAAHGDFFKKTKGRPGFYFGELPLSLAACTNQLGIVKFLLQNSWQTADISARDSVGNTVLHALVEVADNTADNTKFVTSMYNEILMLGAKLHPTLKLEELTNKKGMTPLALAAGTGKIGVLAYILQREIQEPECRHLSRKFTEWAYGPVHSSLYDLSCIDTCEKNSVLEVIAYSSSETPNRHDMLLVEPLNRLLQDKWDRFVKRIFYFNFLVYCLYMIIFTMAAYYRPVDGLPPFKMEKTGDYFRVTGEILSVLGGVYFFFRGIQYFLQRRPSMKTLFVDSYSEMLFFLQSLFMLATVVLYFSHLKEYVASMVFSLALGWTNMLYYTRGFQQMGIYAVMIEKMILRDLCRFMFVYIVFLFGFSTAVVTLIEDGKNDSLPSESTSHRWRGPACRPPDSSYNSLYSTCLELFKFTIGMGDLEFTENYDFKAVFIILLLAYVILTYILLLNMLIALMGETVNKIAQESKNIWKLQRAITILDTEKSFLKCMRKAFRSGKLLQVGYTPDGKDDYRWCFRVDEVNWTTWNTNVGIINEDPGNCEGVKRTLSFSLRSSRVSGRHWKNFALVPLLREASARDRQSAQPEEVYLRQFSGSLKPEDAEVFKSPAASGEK
Experimental: as §1, §2

SMILES	IC50 (rat TRPV1)	IC50 (human TRPV1)
CC(C)(C)c1ccc(Nc2ncnc3oc(Cc4c(Cl)cccc4Cl)nc23)cc1 [Example 2, (4-tert-Butyl-phenyl)-[2-(2,6-dichloro-benzyl)-oxazolo[5,4-d]pyrimidin-7-yl]-amine]	0.03 µM	0.075 µM
FC(F)(F)c1ccc(Nc2ncnc3sc(Cc4ccccc4I)nc23)cc1 [Example 4, [2-(2-Iodo-benzyl)-thiazolo[5,4-d]pyrimidin-7-yl]-(4-trifluoromethyl-phenyl)-amine]	0.008 µM	0.022 µM
FC(F)(F)c1ccc(Nc2ncnc3sc(Cc4c(Cl)cccc4Cl)nc23)cn1 [Example 8, [2-(2,6-Dichloro-benzyl)-thiazolo[5,4-d]pyrimidin-7-yl]-(6-trifluoromethyl-pyridin-3-yl)-amine]	0.055 µM	0.03 µM
CS(=O)(=O)c1ccc(Nc2ncnc3sc(Cc4c(Cl)cccc4Cl)nc23)cc1 [Example 13, [2-(2,6-Dichloro-benzyl)-thiazolo[5,4-d]pyrimidin-7-yl]-(4-methanesulfonyl-phenyl)-amine]	0.057 µM	0.19 µM
O=S(=O)(c1ccc(Nc2ncnc3sc(Cc4c(Cl)cccc4Cl)nc23)cc1)N1CCOCC1 [Example 15, [2-(2,6-Dichloro-benzyl)-thiazolo[5,4-d]pyrimidin-7-yl]-[4-(morpholine-4-sulfonyl)-phenyl]-amine]	0.054 µM	0.033 µM
COC(=O)C(C)(C)c1ccc(Nc2ncnc3sc(Cc4c(Cl)cccc4Cl)nc23)cc1 [Example 26, Methyl 2-(4-{[2-(2,6-dichlorobenzyl)[1,3]thiazolo[5,4-d]pyrimidin-7-yl]amino}phenyl)-2-methylpropanoate]	0.074 µM	–
O=S(=O)(c1ccc(Nc2ncnc3sc(Cc4c(Cl)cccc4Cl)nc23)cc1)N1CCNCC1 [Example 28, 2-(2,6-Dichlorobenzyl)-N-[4-(piperazin-1-ylsulfonyl)phenyl][1,3]thiazolo[5,4-d]pyrimidin-7-amine]	> 2.22 µM	–
FC(F)(F)c1ccc(Nc2ncnc3sc(Cc4ccc(Cl)cc4Cl)nc23)cn1 [Example 29, 2-(2,4-Dichlorobenzyl)-N-[6-(trifluoromethyl)pyridin-3-yl][1,3]thiazolo[5,4-d]pyrimidin-7-amine]	0.6 µM	–
FC(F)(F)c1ccc(Nc2ncnc3sc(Cc4ccccc4C(F)(F)F)nc23)cc1 [Example 30, 2-[2-(Trifluoromethyl)benzyl]-N-[4-(trifluoromethyl)phenyl][1,3]thiazolo[5,4-d]pyrimidin-7-amine]	0.004 µM	–
FC(F)(F)c1ccc(Nc2ncnc3sc(Cc4ccccc4C(F)(F)F)nc23)cn1 [Example 31, 2-[2-(Trifluoromethyl)benzyl]-N-[6-(trifluoromethyl)pyridin-3-yl][1,3]thiazolo[5,4-d]pyrimidin-7-amine]	0.013 µM	–
CSc1ccc(Nc2ncnc3sc(Cc4c(Cl)cccc4Cl)nc23)cn1 [Example 38, 2-(2,6-Dichlorobenzyl)-N-[6-(methylsulfanyl)pyridin-3-yl][1,3]thiazolo[5,4-d]pyrimidin-7-amine]	0.099 µM	–
FC(F)(F)c1nnc(Nc2ncnc3sc(Cc4c(Cl)cccc4Cl)nc23)s1 [Example 98, 2-(2,6-Dichlorobenzyl)-N-[5-(trifluoromethyl)-1,3,4-thiadiazol-2-yl][1,3]thiazolo[5,4-d]pyrimidin-7-amine]	1.05 µM	–
CC(C)(C)c1nnc(Nc2ncnc3sc(Cc4c(Cl)cccc4Cl)nc23)s1 [Example 99, N-(5-tert-Butyl-1,3,4-thiadiazol-2-yl)-2-(2,6-dichlorobenzyl)[1,3]thiazolo[5,4-d]pyrimidin-7-amine]	0.195 µM	–
CC(C)COc1nc(Nc2ccc(C(F)(F)F)cc2)c2nc(Cc3c(Cl)cccc3Cl)sc2n1 [Example 103, [2-(2,6-Dichloro-benzyl)-5-isobutoxy-thiazolo[5,4-d]pyrimidin-7-yl]-(4-trifluoromethyl-phenyl)-amine]	0.016 µM	–

Continued, values first:

IC50 (rat TRPV1)	IC50 (human TRPV1)	SMILES
0.058 µM	0.136 µM	FC(F)(F)c1ccc(Nc2ncnc3oc(Cc4c(Cl)cccc4Cl)nc23)cc1 [Example 1, [2-(2,6-Dichloro-benzyl)-oxazolo[5,4-d]pyrimidin-7-yl]-(4-trifluoromethyl-phenyl)-amine]
0.03 µM	0.048 µM	FC(F)(F)c1ccc(Nc2ncnc3sc(Cc4c(Cl)cccc4Cl)nc23)cc1 [Example 3, [2-(2,6-Dichloro-benzyl)-thiazolo[5,4-d]pyrimidin-7-yl]-(4-trifluoromethyl-phenyl)-amine]
> 6.67 µM	–	CSc1nc(Nc2ccc(C(F)(F)F)cc2)c2nc(Cc3c(Cl)cccc3Cl)sc2n1 [Example 5, [2-(2,6-Dichloro-benzyl)-5-methylsulfanyl-thiazolo[5,4-d]pyrimidin-7-yl]-(4-trifluoromethyl-phenyl)-amine]
0.015 µM	0.023 µM	Cc1nc(Nc2ccc(C(F)(F)F)cc2)c2nc(Cc3c(Cl)cccc3Cl)sc2n1 [Example 6, [2-(2,6-Dichloro-benzyl)-5-methyl-thiazolo[5,4-d]pyrimidin-7-yl]-(4-trifluoromethyl-phenyl)-amine]
0.074 µM	0.04 µM	FC(F)(F)c1ccc(Nc2ncnc3sc(Cc4c(Cl)cccc4Cl)nc23)cc1Cl [Example 9, (3-Chloro-4-trifluoromethyl-phenyl)-[2-(2,6-dichloro-benzyl)-thiazolo[5,4-d]pyrimidin-7-yl]-amine]
0.068 µM	0.034 µM	O=S(=O)(c1ccc(Nc2ncnc3sc(Cc4c(Cl)cccc4Cl)nc23)cc1)C(F)(F)F [Example 14]
0.043 µM	–	FC(F)(F)c1ccc(Nc2ncnc3sc(Cc4ccc(Cl)cc4Cl)nc23)cc1 [Example 27, 2-(2,4-Dichlorobenzyl)-N-[4-(trifluoromethyl)phenyl][1,3]thiazolo[5,4-d]pyrimidin-7-amine]
1.02 µM	–	CC(CO)Nc1nc(Nc2ccc(C(F)(F)F)cc2)c2nc(Cc3c(Cl)cccc3Cl)sc2n1 (stereo not drawn) [Example 70, 2-[2-(2,6-Dichloro-benzyl)-7-(4-trifluoromethyl-phenylamino)-thiazolo[5,4-d]pyrimidin-5-ylamino]-propan-1-ol]
2.45 µM	–	COC[C@@H]1CCCN1c1nc(Nc2ccc(C(F)(F)F)cc2)c2nc(Cc3c(Cl)cccc3Cl)sc2n1 [Example 71, (S)-[2-(2,6-Dichloro-benzyl)-5-(2-methoxymethyl-pyrrolidin-1-yl)-thiazolo[5,4-d]pyrimidin-7-yl]-(4-trifluoromethyl-phenyl)-amine]
0.072 µM	–	CC(C)Nc1nc(Nc2ccc(C(F)(F)F)cc2)c2nc(Cc3c(Cl)cccc3Cl)sc2n1 [Example 72, 2-(2,6-Dichloro-benzyl)-N^5-isopropyl-N^7-(4-trifluoromethyl-phenyl)-thiazolo[5,4-d]pyrimidine-5,7-diamine]
0.063 µM	–	FC(F)(F)c1ccc(Nc2nc(N3CCC3)nc3sc(Cc4c(Cl)cccc4Cl)nc23)cc1 [Example 73, [5-Azetidin-1-yl-2-(2,6-dichloro-benzyl)-thiazolo[5,4-d]pyrimidin-7-yl]-(4-trifluoromethyl-phenyl)-amine]
> 6.67 µM	–	FC(F)(F)c1ccc(Nc2nc(N3CCNCC3)nc3sc(Cc4c(Cl)cccc4Cl)nc23)cc1 [Example 74, [2-(2,6-Dichloro-benzyl)-5-piperazin-1-yl-thiazolo[5,4-d]pyrimidin-7-yl]-(4-trifluoromethyl-phenyl)-amine trifluoroacetic acid salt]
0.132 µM	–	CC(C)N1CCN(c2nc(Nc3ccc(C(F)(F)F)cc3)c3nc(Cc4c(Cl)cccc4Cl)sc3n2)CC1 [Example 75, [2-(2,6-Dichloro-benzyl)-5-(4-isopropyl-piperazin-1-yl)-thiazolo[5,4-d]pyrimidin-7-yl]-(4-trifluoromethyl-phenyl)-amine trifluoroacetic acid salt]
0.014 µM	–	FC(F)(F)c1ccc(Nc2nc(N3CCCCC3)nc3sc(Cc4c(Cl)cccc4Cl)nc23)cc1 [Example 81, [2-(2,6-Dichloro-benzyl)-5-piperidin-1-yl-thiazolo[5,4-d]pyrimidin-7-yl]-(4-trifluoromethyl-phenyl)-amine]
0.959 µM	–	FC(F)(F)c1ccc(Nc2nc(NCCN3CCCC3)nc3sc(Cc4c(Cl)cccc4Cl)nc23)cc1 [Example 82, 2-(2,6-Dichloro-benzyl)-N^5-(2-pyrrolidin-1-yl-ethyl)-N^7-(4-trifluoromethyl-phenyl)-thiazolo[5,4-d]pyrimidine-5,7-diamine trifluoroacetic acid salt]
